{"source": "patent US20100267561A1", "about": "“HERBICIDAL PYRIDAZINONE DERIVATIVES” (priority 2007, published 2010)", "format_in_all_cases": "in vivo", "key": {"[1]": {"test_system": "morningglory (Ipomoea coccinea)", "experiment": "Test B pre-/postemergence plant response", "conditions": "Ipomoea, pre-emergence, Preemergence, read-out: Plant response rating, Morningglory", "method_in_brief": "(§1)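 Visual scoring from 0 (no effect) to 100 (complete control) against untreated controls was done 13 to 15 days after greenhouse treatment. Chemicals were formulated in a surfactant-containing non-phytotoxic solvent and applied to soil preemergence or to 1- to 4-leaf (2-18 cm) plants postemergence.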"}, "[2]": {"test_system": "velvetleaf (Abutilon theophrasti)", "experiment": "Test B pre-/postemergence plant response", "conditions": "Abutilon theophrasti, read-out: Plant response rating, Velvetleaf; for pest or weed control at 31 g/ha: 31 g ai/ha, 100 complete control; for pest or weed control at 62 g/ha: 62 g ai/ha; for pest or weed control at 62 g/ha / pest or weed control at 125 g/ha / pest or weed control at 250 g/ha: scale 0 to 100; for pest or weed control at 125 g/ha: 125 g ai/ha; for pest or weed control at 250 g/ha: 250 g ai/ha", "method_in_brief": "as §1"}, "[3]": {"test_system": "wild oat (Avena fatua)", "experiment": "Test B pre-/postemergence plant response", "conditions": "Avena fatua, read-out: Plant response rating, Oat, Wild; for pest or weed control at 31 g/ha: 31 g ai/ha, 100 complete control; for pest or weed control at 62 g/ha: 62 g ai/ha; for pest or weed control at 62 g/ha / pest or weed control at 125 g/ha / pest or weed control at 250 g/ha: scale 0 to 100; for pest or weed control at 125 g/ha: 125 g ai/ha; for pest or weed control at 250 g/ha: 250 g ai/ha", "method_in_brief": "as §1"}, "[4]": {"test_system": "yellow nutsedge (Cyperus esculentus)", "experiment": "Test B pre-/postemergence plant response", "conditions": "Cyperus, read-out: Plant response rating, Nutsedge, Yellow; for pest or weed control at 31 g/ha: 31 g ai/ha, 100 complete control; for pest or weed control at 62 g/ha: 62 g ai/ha; for pest or weed control at 250 g/ha: 250 g ai/ha", "method_in_brief": "as §1"}, "[5]": {"test_system": "canarygrass (Phalaris minor)", "experiment": "Test B postemergence plant response", "conditions": "Postemergence", "method_in_brief": "(§2)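 Visual injury ratings on a 0–100 scale, where 100 means complete control, were made 13 to 15 days after postemergence treatment of greenhouse-grown plants at the 1- to 4-leaf stage.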"}, "[6]": {"test_system": "chickweed (Stellaria media)", "experiment": "Test B postemergence plant response", "conditions": "Postemergence", "method_in_brief": "as §2"}, "[7]": {"test_system": "windgrass (Apera spica-venti)", "experiment": "Test B postemergence plant response", "conditions": "Postemergence", "method_in_brief": "as §2"}, "[8]": {"test_system": "winter barley (Hordeum vulgare)", "experiment": "Test B postemergence plant response", "conditions": "Postemergence", "method_in_brief": "as §2"}, "[9]": {"test_system": "barnyardgrass (Echinochloa crus-galli)", "experiment": "Test B flooded paddy test plant response", "conditions": "Echinochloa crus-galli, read-out: Plant response rating, Barnyardgrass", "method_in_brief": "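Rice, umbrella sedge, ducksalad and barnyardgrass at 2-leaf stage; pots flooded to 3 cm, compounds applied into paddy water, depth held throughout. Greenhouse 13 to 15 days, then visual rating vs untreated controls on 0–100 scale (0 no effect, 100 complete control); dash means no test result.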"}, "[10]": {"conditions": "post-emergence, Postemergence, scale 0 to 100, 0 no effect"}, "[11]": {"conditions": "pre-emergence, Preemergence, 0 to 100 scale, 0 no effect"}, "[12]": {"conditions": "post-emergence, Postemergence, scale 0 to 100"}, "[13]": {"conditions": "pre-emergence, Preemergence, scale 0 to 100"}, "[14]": {"conditions": "31 g ai/ha, scale 0 to 100, 0 no effect, 100 complete control"}}, "note": "Read-outs that look alike come from different tables or passages of the source.", "data": [{"smiles": "Cc1cc(-c2ccc(C(F)(F)F)cc2)nn1-c1c(O)cnn(C)c1=O", "note": "[Compound 1, 5-hydroxy-2-methyl-4-[5-methyl-3-[4-(trifluoromethyl)phenyl]-1H-pyrazol-1-yl]-3(2H)-pyridazinone]", "values": [{"measurement": "pest or weed control at 31 g/ha", "setting": "[1]; 31 g ai/ha, 0 to 100 scale, 0 no effect, 100 complete control", "value": 0, "unit": "%"}, {"measurement": "pest or weed control at 62 g/ha", "setting": "[1]; 62 g ai/ha, scale 0 to 100", "value": 0, "unit": "%"}, {"measurement": "pest or weed control at 125 g/ha", "setting": "[1]; 125 g ai/ha, scale 0 to 100", "value": 0, "unit": "%"}, {"measurement": "pest or weed control at 250 g/ha", "setting": "[1]; 250 g ai/ha, scale 0 to 100", "value": 0, "unit": "%"}, {"measurement": "pest or weed control at 31 g/ha", "setting": "[2]; [10]", "value": 0, "unit": "%"}, {"measurement": "pest or weed control at 62 g/ha", "setting": "[2]; post-emergence, Postemergence", "value": 0, "unit": "%"}, {"measurement": "pest or weed control at 125 g/ha", "setting": "[2]; post-emergence, Postemergence", "value": 0, "unit": "%"}, {"measurement": "pest or weed control at 250 g/ha", "setting": "[2]; post-emergence, Postemergence", "value": 50, "unit": "%"}, {"measurement": "pest or weed control at 31 g/ha", "setting": "[2]; [11]", "value": 0, "unit": "%"}, {"measurement": "pest or weed control at 62 g/ha", "setting": "[2]; pre-emergence, Preemergence", "value": 0, "unit": "%"}, {"measurement": "pest or weed control at 125 g/ha", "setting": "[2]; pre-emergence, Preemergence", "value": 0, "unit": "%"}, {"measurement": "pest or weed control at 250 g/ha", "setting": "[2]; pre-emergence, Preemergence", "value": 50, "unit": "%"}, {"measurement": "pest or weed control at 31 g/ha", "setting": "[3]; [10]", "value": 90, "unit": "%"}, {"measurement": "pest or weed control at 62 g/ha", "setting": "[3]; post-emergence, Postemergence", "value": 100, "unit": "%"}, {"measurement": "pest or weed control at 125 g/ha", "setting": "[3]; post-emergence, Postemergence", "value": 100, "unit": "%"}, {"measurement": "pest or weed control at 250 g/ha", "setting": "[3]; post-emergence, Postemergence", "value": 100, "unit": "%"}, {"measurement": "pest or weed control at 31 g/ha", "setting": "[3]; [11]", "value": 60, "unit": "%"}, {"measurement": "pest or weed control at 62 g/ha", "setting": "[3]; pre-emergence, Preemergence", "value": 85, "unit": "%"}, {"measurement": "pest or weed control at 125 g/ha", "setting": "[3]; pre-emergence, Preemergence", "value": 90, "unit": "%"}, {"measurement": "pest or weed control at 250 g/ha", "setting": "[3]; pre-emergence, Preemergence", "value": 98, "unit": "%"}, {"measurement": "pest or weed control at 31 g/ha", "setting": "[4]; [10]", "value": 0, "unit": "%"}, {"measurement": "pest or weed control at 62 g/ha", "setting": "[4]; [12]", "value": 0, "unit": "%"}, {"measurement": "pest or weed control at 125 g/ha", "setting": "[4]; post-emergence, Postemergence, 125 g ai/ha, scale 0 to 100", "value": 0, "unit": "%"}, {"measurement": "pest or weed control at 250 g/ha", "setting": "[4]; [12]", "value": 0, "unit": "%"}, {"measurement": "pest or weed control at 31 g/ha", "setting": "[4]; [11]", "value": 0, "unit": "%"}, {"measurement": "pest or weed control at 62 g/ha", "setting": "[4]; [13]", "value": 0, "unit": "%"}, {"measurement": "pest or weed control at 250 g/ha", "setting": "[4]; [13]", "value": 0, "unit": "%"}, {"measurement": "Plant response rating, Canarygrass", "setting": "[5]; [14]", "value": 0}, {"measurement": "Plant response rating, Canarygrass", "setting": "[5]; 62 g ai/ha, scale 0 to 100", "value": 0}, {"measurement": "Plant response rating, Canarygrass", "setting": "[5]; 125 g ai/ha, scale 0 to 100", "value": 0}, {"measurement": "Plant response rating, Canarygrass", "setting": "[5]; 250 g ai/ha, scale 0 to 100", "value": 40}, {"measurement": "Plant response rating, Chickweed", "setting": "[6]; [14]", "value": 0}, {"measurement": "Plant response rating, Chickweed", "setting": "[6]; 62 g ai/ha, scale 0 to 100", "value": 0}, {"measurement": "Plant response rating, Chickweed", "setting": "[6]; 125 g ai/ha, scale 0 to 100", "value": 0}, {"measurement": "Plant response rating, Chickweed", "setting": "[6]; 250 g ai/ha, scale 0 to 100", "value": 5}, {"measurement": "Plant response rating, Windgrass", "setting": "[7]; [14]", "value": 95}, {"measurement": "Plant response rating, Windgrass", "setting": "[7]; 62 g ai/ha, scale 0 to 100", "value": 100}, {"measurement": "Plant response rating, Windgrass", "setting": "[7]; 125 g ai/ha, scale 0 to 100", "value": 100}, {"measurement": "Plant response rating, Windgrass", "setting": "[7]; 250 g ai/ha, scale 0 to 100", "value": 100}, {"measurement": "Plant response rating, Barley", "setting": "[8]; [14]", "value": 0}, {"measurement": "Plant response rating, Barley", "setting": "[8]; 62 g ai/ha, scale 0 to 100", "value": 0}, {"measurement": "Plant response rating, Barley", "setting": "[8]; 125 g ai/ha, scale 0 to 100", "value": 0}, {"measurement": "Plant response rating, Barley", "setting": "[8]; 250 g ai/ha, scale 0 to 100", "value": 30}, {"measurement": "pest or weed control at 62 g/ha", "setting": "[9]; Flood (flooded paddy test), 62 g ai/ha, scale 0 to 100, 0 no effect, 100 complete control", "value": 0, "unit": "%"}, {"measurement": "pest or weed control at 125 g/ha", "setting": "[9]; Flood (flooded paddy test), 125 g ai/ha, scale 0 to 100, 0 no effect, 100 complete control", "value": 20, "unit": "%"}, {"measurement": "pest or weed control at 250 g/ha", "setting": "[9]; Flood (flooded paddy test), 250 g ai/ha, scale 0 to 100, 0 no effect, 100 complete control", "value": 60, "unit": "%"}, {"measurement": "pest or weed control at 31 g/ha", "setting": "[9]; Flood, 31 g ai/ha, scale 0 to 100", "value": 0, "unit": "%"}]}]}
